Data on 4 compounds can be found in patent publication US11547696B2, “Methods and compositions for treatment of myelodysplastic syndromes and/or acute myeloid leukemias” (Children's Hospital Medical Center, priority 2016, dated 2023).

Each structure is given as a SMILES string. Entries after “also recorded” stand apart in the source; their conditions may differ. Like-named read-outs stand apart in the source and are kept apart here.

One data set deals with MOLM-13 and THP-1 cells. Put plainly: DNA damage in MOLM-13 and THP-1 cells. The format is cell-based.
For data set [1], the system named is AML/MDS cells. Put plainly: Proliferation of AML/MDS cells. It counts as cell-based.
For data set [2], the target named is T1, UBE2N (Homo sapiens, UniProt P61088).
T1 construct: endogenous in cells
T1 sequence (P61088 1-152): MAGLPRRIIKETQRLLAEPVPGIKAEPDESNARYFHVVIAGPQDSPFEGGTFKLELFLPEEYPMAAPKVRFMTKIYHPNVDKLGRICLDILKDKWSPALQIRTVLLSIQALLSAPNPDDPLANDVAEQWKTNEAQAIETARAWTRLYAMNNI
As to the kind of experiment: Direct binding to UBE2N (Michael-Addition reaction). As to conditions: through a Michael-Addition reaction.

For another data set, the system named is UBE2N active site mutant. As to the kind of experiment: Inhibition of NFkB with UBE2N active site mutant. The format is cell-based.
For a further data set, the system named is primary MDS stem cells. Put plainly: Clonogenic potential of primary MDS stem cells. It counts as cell-based.
Data set [3] concerns AML/MDS cells. Put plainly: Clonogenic potential of AML/MDS cells. It counts as cell-based.
For data set [4], the target named is T1, UBE2N. Put plainly: UBE2N ubiquitination at Lysine (K)-92.
For data set [5], the system named is MDS/AML cells. As to the kind of experiment: Targeting MDS/AML cells in vivo.
The next data set concerns DDB1. Put plainly: DDB1 ubiquitination following UBE2N inhibition. It counts as cell-based. Conditions: following inhibition of UBE2N. From the text:
(§1) To identify the molecular basis of UBE2N inhibition, Applicant performed a global ubiquitin screen for changes in ubiquitinated substrates and gene expression profiling by RNA sequencing. For the ubiquitin screen, K63 ubiquinated proteins were immunopreciptated from MDSL cells upon pharmacologic inhibition of UBE2N, followed by mass spectrometry analysis.
(§2) One substrate identified in NSC697923-treated MDSL cells by the ubiquitin screen is DDB1, a component of the CUL4-CRBN E3 ligase complex targeted by Lenalidomide (LEN). […] LEN has shown encouraging results in del(5q) MDS patients (“deletion 5q (del 5q) MDS” in which part of chromosome 5 is missing), but its effects are limited in other cytogenetic subtypes of MDS or AML. Therefore, the identification of molecular targets that can enhance or extend the use of LEN in a broader spectrum of patients is desired Applicant explored the possibility of a cooperative effect of LEN and NSC697923 on MDS/AML cells. […] As such, UBE2N is a promising target for extending the use of LEN to other subtypes of MDS/AML.

The next data set relates to AML cells. As to the kind of experiment: Viability of AML cells. It counts as cell-based.
The test system of data set [6] is TLR mediated NFkB activity. Put plainly: TLR mediated NFkB activity. The format is cell-based. As to conditions: for TLR mediated NFkB signaling: AML cells.
For data set [7], the system named is NFkB and interferon signaling in AML/MDS cells. Put plainly: NFkB and interferon signaling in AML/MDS cells. It counts as cell-based. As to conditions: for NFkB signaling: AML cells.
For data set [8], the system named is AML/MDS cells. As to the kind of experiment: DNA damage in AML/MDS cells. It counts as cell-based.
The test system of data set [9] is MDSL cells. Put plainly: Global ubiquitin screen in MDSL cells. The format is cell-based.
From the text: as §1

Data set [10] deals with MDSL cells. As to the kind of experiment: RNA sequencing / expression in MDSL cells. The format is cell-based.
From the text: as §1

A further data set concerns TRAF6. As to the kind of experiment: TRAF6 protein expression. The format is cell-based. Conditions: rescued by inhibition of the proteasome.
The test system of data set [11] is MDS/AML cells. Put plainly: Cellular metabolic activity of MDS/AML cells. It counts as cell-based.
In data set [12] the test system is AML/MDS cells. As to the kind of experiment: Cell death of AML/MDS cells. It counts as cell-based.
In data set [13] the test system is AML/MDS cells. As to the kind of experiment: Cell cycle of AML/MDS cells. The format is cell-based.
The subject of another data set is normal HSPC. As to the kind of experiment: Clonogenic capacity of normal HSPC. It counts as cell-based.
Data set [14] deals with MDS/AML cell lines and patient samples. Put plainly: Combination with lenalidomide on MDS/AML cell lines and patient samples in vitro. It counts as cell-based. As to conditions: MDS/AML cells.
From the text: as §2

In a further data set the test system is normal CD34+ cells. As to the kind of experiment: Function of normal CD34+ cells in the presence of lenalidomide. It counts as cell-based.

As to `Cc1ccc(S(=O)(=O)c2ccc([N+](=O)[O-])o2)cc1` [UC65], in the data set on MOLM-13 and THP-1 cells, the DNA damage result is “does not cause DNA damage”. For the same compound, the proliferation result in the data set on AML/MDS cells [1] (AML cells) is given as “reduces their proliferation”. Also, the “direct binding to UBE2N” value at UBE2N [2] is recorded as “directly bind UBE2N”. Further, in the data set on UBE2N active site mutant, the “sensitivity of UBE2N active site mutant to inhibition of NFkB” value is recorded as “less sensitive”. The clonogenic potential entry with primary MDS stem cells and in the data set on AML/MDS cells [3] (AML cells) was “reduces their clonogenic potential” each time. Moreover, the “UBE2N ubiquination at Lysine (K)-92” value at UBE2N [4] was “reduces UBE2N ubiquination at Lysine (K)-92”. Besides, in the data set with MDS/AML cells [5], the “effectiveness against MDS/AML cells in vivo” value is listed as “effective against targeting MDS/AML cells in vivo”. Besides, in the data set on DDB1, the DDB1 ubiquination entry is reported as “differentially ubiquinated”. For the same compound, the viability entry with AML cells is “reduces their viability”. For the same compound, in data set [6], the “TLR mediated NFkB signaling” value is reported as “inhibits TLR mediated NFkB signaling”. Moreover, in data set [7], the NFkB signaling result is on record as “inhibits NFkB signaling”.

Regarding `Cc1ccc(S(=O)(=O)c2ccc([N+](=O)[O-])o2)cc1` [NSC697923], in the data set on AML/MDS cells [8], the DNA damage result is listed as “induces DNA damage”. Moreover, the proliferation entry with AML/MDS cells [1] (AML/MDS cells) is “reduces proliferation”. Further, the protein ubiquination entry in the data set with MDSL cells [9] is “Differential protein ubiquination”. The “expression of APC/CDC20 substrates (i.e., cyclin B1)” value in the data set with MDSL cells [10] is “increased expression of APC/CDC20 substrates”. The “gene expression changes by RNA sequencing” value with MDSL cells [10] (MDSL cells) was “expression changes in genes involved in mRNA processing, cell cycle, and glycolysis”. Also, the TRAF6 protein expression entry in the data set on TRAF6 is given as “dramatic loss of TRAF6 protein expression”. In addition, the clonogenic potential result in the data set on AML/MDS cells [3] (AML/MDS cells) is “reduces proliferation and clonogenic potential”. The clonogenic capacity result in the data set on AML/MDS cells [3] (MDSL/AML cell lines and primary cells) is reported as “reduced the clonogenic capacity”. Besides, the cellular metabolic activity result with MDS/AML cells [11] is recorded as “reduced the cellular metabolic activity”. Also, the cell death entry is reported as “increased cell death” with AML/MDS cells [12] and “cell death” in the data set with AML/MDS cells [12] (listed as NSC23). The “TLR mediated NFkB activity” value in data set [6] is “inhibits TLR mediated NFkB activity”. Also, in data set [7] (AML/MDS cells, listed as NSC23), the “NFkB and interferon signaling” value is “inhibits NKkB and interferon signaling; also recorded: inhibits NFkB and interferon signaling”. In addition, the cell cycle arrest entry in the data set on AML/MDS cells [13] is on record as “induced a G2/M cell cycle arrest”; in the data set with AML/MDS cells [13] (listed as NSC23), “induces cell cycle arrest in mitosis”. For the same compound, the “effect on normal HSPC (clonogenic capacity)” value with normal HSPC was “not significantly affecting normal HSPC”.

As to `Cc1ccc(S(=O)(=O)/C=C/C#N)cc1` [UC64], the DNA damage entry in the data set with MOLM-13 and THP-1 cells is “does not cause DNA damage”. For the same compound, the proliferation entry in the data set with AML/MDS cells [1] (AML cells) is on record as “reduces their proliferation”. For the same compound, the “direct binding to UBE2N” value on UBE2N [2] is on record as “directly bind UBE2N”. Further, the “sensitivity of UBE2N active site mutant to inhibition of NFkB” value with UBE2N active site mutant is “less sensitive”. Further, the clonogenic potential entry in the data set with AML/MDS cells [3] (AML cells) is reported as “reduces their clonogenic potential”. In addition, the “UBE2N ubiquination at Lysine (K)-92” value at UBE2N [4] was “reduces UBE2N ubiquination at Lysine (K)-92”. The DDB1 ubiquination entry with DDB1 was “differentially ubiquinated”. The viability entry in the data set with AML cells is recorded as “reduces their viability”. Also, the “TLR mediated NFkB signaling” value in data set [6] is reported as “inhibits TLR mediated NFkB signaling”. Moreover, the NFkB signaling result in data set [7] is recorded as “inhibits NFkB signaling”.

For `Nc1cccc2c1CN(C1CCC(=O)NC1=O)C2=O` (stereo not shown) [lenalidomide], the “cytotoxic effects of lenalidomide with UBE2N inhibition” value in data set [14] is reported as “enhances the cytotoxic effects”. In addition, the “function of normal CD34+ cells with UBE2N inhibition in the presence of lenalidomide” value with normal CD34+ cells is given as “does not affect the function of normal CD34+ cells”.
